“And” between values parts separate entries of the source, which are not always exact repeats. Equal values may be shown once.
Tests used:
[1] = system: human PMN migration across T84 epithelial monolayers; test: PMN transepithelial migration assay, apical-to-basolateral direction, fMLP gradient, myeloperoxidase readout; format: cell-based
Procedure: (§1) Cell culture Approximately 350 epithelial monolayers were used for these studies. T84 intestinal epithelial cells (passages 70-95) were grown and maintained as confluent monolayers on collagen coated permeable support. Monolayers were grown on 0.33 cm^2 ring-supported polycarbonate filters (Costar Corp., Cambridge, Mass.) and utilized 6-14 days after plating as described in Example 2. Transepithelial resistance to passive ion flow was measured as described in Parkos C. A., et al. (1991). J. Clin. Invest. 88: 1605-1612); and Parkos C. A., et al. (1992). J. Cell. Biol. 117: 757-764). Inverted monolayers used to study migration of PMN in the basolateral-to-apical direction were constructed as described in Parkos C. A., et al. (1991). J. Clin. Invest. 88:1605-1612).
(§2) Migration assay: The PMN transepithelial migration assay has been detailed in Nash S., et al. (1987). J. Clin. Invest. 80: 1104-1113; Nash S., et al. (1991). J. Clin. Invest 87: 1474-1477); Parkos C. A., et al. (1991). J. Clin. Invest. 88: 1605-1612); and Parkos C. A., et al. (1992). J. Cell. Biol. 117: 757-764. Briefly, human PMN were isolated from normal human volunteers and suspended in modified HBSS (without Ca^2+ and Mg^2+, with 10 mM Hepes, pH 7.4, Sigma) at a concentration of 5×10^7/ml. Prior to addition of PMN, T84 monolayers were extensively rinsed in HBSS to remove residual serum components. Migration assays were performed by the addition of PMN (40 μl) to HBSS ([…]) in the upper chambers after chemoattractant (1 μM fMLP in HBSS) was added to the opposing (lower) chambers. Unless otherwise indicated, PMN were not washed free of LXA4 prior to addition to monolayers, and therefore, a five-fold dilution of lipoxin was present during the migration assay. For apical-to-basolateral migration experiments, PMN (2×10^6) were added at time 0. Migration in the basolateral-to-apical direction, while qualitatively similar, is substantially more efficient than in the apical-to-basolateral direction. (Parkos C. A., et al. (1991). J. Clin. Invest. 88: 1605-1612). Therefore, 5-fold fewer PMN (4×10^5) were added when migration proceeded in the basolateral-to-apical direction in order that baseline migration signals be approximately equivalent in both directions. (Parkos C. A., et al. (1991). J. Clin. Invest. 88: 1605-1612). Migration was allowed to proceed for 120 minutes, unless otherwise noted. All PMN transepithelial migration experiments were performed in a 37° C. room to ensure that epithelial monolayers, solutions, plasticware, etc., were maintained at uniform 37° C. temperature.
(§3) Migration was quantitated by assaying for the PMN azurophilic granule marker myeloperoxidase (MPO) as described previously (Parkos C. A., et al. (1991). J. Clin. Invest 88: 1605-1612). Following each migration assay, non-adherent PMN were extensively washed from the surface of the monolayer and PMN cell equivalents (PMN CE), estimated from a standard curve, were assessed as the number of PMN's associated with the monolayer, the number which had completely traversed the monolayer (ie. across the monolayer into the reservoir bath), as well as the total number of transmigrating PMN (the sum of monolayer and reservoir-associated PMN).
(§4) Data Presentation: Individual experiments were performed using large numbers of uniform groups of monolayers and PMN from individual blood donors on individual days. PMN isolation was restricted to five different blood donors (repetitive donations) over the course of these studies. Myeloperoxidase assay data were compared by two-factor analysis of variance (ANOVA) or by comparison of means using Student's t-Test PMN migration results are represented as PMN CE derived from a daily standard PMN dilution curve. Monolayer-associated PMN are represented as the number of PMN CE per monolayer and reservoir-associated PMN (ie. PMN which had completely traversed the monolayer into the lower chamber) are represented as the number of PMN CE/ml (total volume of 1 ml). […]

[2] = system: human PMN migration across inverted T84 epithelial monolayers; test: PMN transepithelial migration assay, basolateral-to-apical direction (inverted monolayers), fMLP gradient, myeloperoxidase readout; format: cell-based
Procedure: as §1, §2, §3, §4

[3] = 10 nM LXA4, 30 min pre-exposure
[4] = PMN pre-exposed 10 nM LXA4 15 min 37°C, 1 μM fMLP, 120 min

With `CCCCC[C@H](O)/C=C/C=C\C=C\C=C\[C@@H](O)[C@@H](O)CCCC(=O)O` (relative stereo) [LXA4, (5S, 6R, 15S)-trihydroxy-7,9,13-trans-11-cis-eicosatetraenoic acid] the “PMN in lower reservoirs” value ([1]; 0.001 nM LXA4, 15 min pre-exposure 37°C) was 13.71±4.14 ×10^4 PMN CE/ml, the “PMN in lower reservoirs” value ([1]; 0.01 nM LXA4, 15 min pre-exposure 37°C) was 14.11±3.01 ×10^4 PMN CE/ml and the “PMN in lower reservoirs” value ([1]; 0.1 nM LXA4, 15 min pre-exposure 37°C) was 15.43±4.65 ×10^4 PMN CE/ml. For the same compound, the “PMN in lower reservoirs” value ([1]; 1 nM LXA4, 15 min pre-exposure 37°C) was 19.96±4.83 ×10^4 PMN CE/ml, the “total PMN migration after LXA4 washout” value ([1]; 10 nM LXA4 15 min, PMN then washed twice in HBSS) was 14.5±0.3 ×10^4 PMN CE/ml and the “total PMN migration (total MPO activity)” value ([1]; 10 nM LXA4 15 min, harvested 45 min after addition of PMN) was 1.51±0.12 ×10^4 PMN CE/ml. The “fold increase in the total number of transmigrating PMN” value ([1]; 10 nM LXA4 15 min vs vehicle control) was ~2 fold, the “total PMN migration” value ([1]; 10 nM LXA4, 0 min pre-exposure) was 16.61±3.56 ×10^4 total PMN CE/ml and the “total PMN migration relative to vehicle control” value ([1]; 10 nM LXA4, 45 and 60 minutes pre-exposure) was “returned to vehicle control values”. For the same compound, the “increase in total PMN migration compared to vehicle controls” value (“increase in total PMN migration” below) ([1]; 10 nM LXA4, 5 min pre-exposure) was 50%, the “reservoir-associated PMN” value ([1]; 10 nM LXA4, 5 min pre-exposure) was 18.02±3.35 ×10^4 PMN CE/ml and the “increase in total PMN migration” value ([1]; 10 nM LXA4, 15 min pre-exposure) was 80% and 68%. The “increase in total PMN migration” value [1, 3] was 51%, the “reservoir-associated PMN” value [1, 3] was 19.64±3.54 ×10^4 PMN CE/ml and the “monolayer-associated PMN” value [1, 4] was 6.93±1.77 ×10^4 PMN CE/monolayer and 7.55±0.71 ×10^4 PMN CE/monolayer. For the same compound, the “reservoir-associated PMN (completely traversed the monolayer)” value [1, 4] was 11.02±2.91 ×10^4 PMN CE/ml and 19.96±3.18 ×10^4 PMN CE/ml and 20.38±4.83 ×10^4 PMN CE/ml, the “total number of transmigrating PMN” value ([1]; PMN pre-exposed 10 nM LXA4 15 min, LXA4 present, 1 μM fMLP, 120 min) was 18.6±1.0 ×10^4 PMN CE/ml and 17.95±2.15 ×10^4 PMN CE/ml and the “inhibition of PMN migration, basolateral-to-apical (total MPO activity)” value ([2]; 10 nM, 15 min pre-incubation 37°C, 1 μM fMLP, 120 min) was 28±4% and 25%. The “transmigrated (reservoir) PMN, basolateral-to-apical” value ([2]; PMN pre-exposed 1 nM LXA4 15 min) was 6.99±1.33 ×10^4 PMN/ml and the “monolayer-associated PMN, basolateral-to-apical” value ([2]; PMN pre-exposed 10 nM LXA4 15 min) was 2.00±0.31.
